Data on 2 molecules can be found in publication PMC2858655, “Structural and Functional Characterization of Human Peripheral Nervous System Myelin Protein P2” (PLoS ONE, 2010).

The target in test [1] is T1, human myelin P2 protein (untagged) (Homo sapiens, UniProt P02689).
T1 construct: gene PMP2
The test can be described thus: X-ray crystallography, […] Å. Type of test: binding. The settings on record: fatty acid carried over from E. coli, identity modelled from electron density; inside barrel cavity; pH 8.5.

Test [2] concerns the target T2, His-tagged P2 protein (His-P2) (Homo sapiens, UniProt P02689).
T2 construct: gene PMP2; full length, N-terminal His6 tag with TEV site kept (pTH27), E. coli Rosetta(DE3)
The test can be described thus: intrinsic Trp fluorescence quenching. Format: binding. The settings on record: 9.4 µM protein, 10 µM cholesterol, 1% ethanol, HEPES, 150 mM NaCl, pH 7.5, 120 min, room temperature, excitation 280 nm.

Take `CCCCCCCCCCCCCCCC(=O)O` [palmitate]: the “X-ray crystallography, 1.85 Å” value in test [1] is “a palmitate molecule, well-defined in the electron density (Figure 2B,4A), was modeled into the lipid-binding cavity”.
With `CC(C)CCC[C@@H](C)[C@H]1CC[C@H]2[C@@H]3CC=C4C[C@@H](O)CC[C@]4(C)[C@H]3CC[C@]12C` [cholesterol], in test [2], the “decrease of fluorescence intensity” value is ~ 25%.
